Experimental data as given in article PMC3808999 (Molecular cell, 2013).

Key:
[1] = biological target: human STING C-terminal domain (CTD, residues 139–379) (Homo sapiens, UniProt Q86WV6, H232R); experiment: Isothermal titration calorimetry; conditions: direct ITC titration
R232A human STING = R232A human STING (Homo sapiens, UniProt Q86WV6, H232A); experiment: IFNβ induction; conditions: L929 cells expressing R232A human STING; IFN-β RNA by q-RT-PCR
WT human STING = WT human STING (Homo sapiens, UniProt Q86WV6, H232R); experiment: IFNβ induction; conditions: L929 cells expressing WT human STING; IFN-β RNA by q-RT-PCR
R232H human STING = R232H human STING (Homo sapiens, UniProt Q86WV6); experiment: IFNβ induction; conditions: L929 cells expressing R232H human STING; IFN-β RNA by q-RT-PCR
Chain of R232H human STING (Q86WV6 whole entry, stated change not applied): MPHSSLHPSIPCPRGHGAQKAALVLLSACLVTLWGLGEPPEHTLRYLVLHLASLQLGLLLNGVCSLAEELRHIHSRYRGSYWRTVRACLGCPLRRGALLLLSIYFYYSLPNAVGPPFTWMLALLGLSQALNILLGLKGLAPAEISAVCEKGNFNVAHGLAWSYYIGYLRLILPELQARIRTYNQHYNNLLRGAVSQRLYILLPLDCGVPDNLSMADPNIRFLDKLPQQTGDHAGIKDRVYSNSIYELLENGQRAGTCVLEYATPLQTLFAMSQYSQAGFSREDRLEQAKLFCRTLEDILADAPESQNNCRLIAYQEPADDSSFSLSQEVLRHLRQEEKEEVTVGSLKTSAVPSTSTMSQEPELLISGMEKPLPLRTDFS

Chain of WT human STING (Q86WV6 whole entry H232R): as the sequence (Q86WV6 whole entry, stated change not applied) above, with H232R counted along it
Chain of R232A human STING (Q86WV6 whole entry H232A): as the sequence (Q86WV6 whole entry, stated change not applied) above, with H232A counted along it
Chain of human STING C-terminal domain (CTD, residues 139–379) (Q86WV6 139-379 H232R): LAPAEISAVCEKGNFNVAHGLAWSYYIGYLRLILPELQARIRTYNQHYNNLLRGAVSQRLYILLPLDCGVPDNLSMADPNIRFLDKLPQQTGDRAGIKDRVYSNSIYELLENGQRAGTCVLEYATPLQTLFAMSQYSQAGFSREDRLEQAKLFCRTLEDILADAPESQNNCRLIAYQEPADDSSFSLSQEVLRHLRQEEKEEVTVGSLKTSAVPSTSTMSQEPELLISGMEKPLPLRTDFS

Row | IFNβ induction (R232A human STING) | IFNβ induction (WT human STING) | IFNβ induction (R232H human STING) | Compound | heat character of binding to STING [1]
1 | – | – | – | Nc1nc2c(ncn2[C@@H]2O[C@@H]3COP(=O)(O)O[C@H]4[C@@H](O)[C@H](n5cnc6c(=O)[nH]c(N)nc65)O[C@@H]4COP(=O)(O)O[C@H]3[C@H]2O)c(=O)[nH]1 [c-di-GMP, cyclic di-GMP] | exothermic
2 | stimulated IFNβ expression | stimulated IFNβ expression | stimulated IFNβ expression | poly[I:C] | –
